Experimental data reported in US9732320B2, “Selective differentiation, identification, and modulation of human TH17 cells” (THE BRIGHAM AND WOMEN'S HOSPITAL, INC., priority 2008, dated 2017).

Experiments:
[1] = tested on: TH17 cells; test: Chemotaxis chamber assay, TH17 cells; format: cell-based
Method: (§1) TH17 or TH1 cells alone or together with different concentrations of LTB4 inhibitor, U75-302, were added to the upper wells of chemotaxis chambers with 10^−8M of LTB4 in the lower wells. Cells were kept at 37° C. in 10% CO2 for 2 hr. Cells from the lower chamber were then stained with anti-CD4 antibody and stimulated for 4 hr with PMA/ionomycin in the presence of Golgi Stop. Cells were permeabilized and stained intracellularly for IL-17 or IFN-γ. The chemotactic index was calculated by dividing the number of CD4^+ IL-17^+ (for TH17 cells) or CD4^+ IFN-γ+ (for TH1 cells) migrated cells in LTB4-containing wells by the number of CD4^+ IL-17^+ (for TH17 cells) or CD4^+ IFN-γ+ (for Th1 cells) cells that migrated spontaneously to media alone.

[2] = tested on: TH1 cells; test: Chemotaxis chamber assay, TH1 cells; format: cell-based; details: 10^−8M of LTB4 in the lower wells, 2 hr
Method: as §1

[3] = biological target: BLT1 (Homo sapiens, UniProt Q15722); details: Richards et al. 1989; cited from earlier work
BLT1, sequence (Q15722 whole entry, species assumed): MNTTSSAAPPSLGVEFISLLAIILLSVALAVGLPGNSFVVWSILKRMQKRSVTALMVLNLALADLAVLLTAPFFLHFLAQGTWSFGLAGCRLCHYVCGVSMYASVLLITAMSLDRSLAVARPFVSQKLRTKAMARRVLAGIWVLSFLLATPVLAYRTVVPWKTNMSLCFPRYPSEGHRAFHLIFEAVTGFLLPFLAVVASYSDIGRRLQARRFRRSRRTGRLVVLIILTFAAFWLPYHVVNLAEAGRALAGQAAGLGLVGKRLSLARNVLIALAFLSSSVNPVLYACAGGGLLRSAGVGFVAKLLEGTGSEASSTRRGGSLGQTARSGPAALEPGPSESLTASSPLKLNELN

[4] = tested on: human naïve CD4+ T cells; test: Differentiation assay: naïve CD4+ T cells stimulated with anti-CD3/anti-CD28 plus cytokines for seven days; ELISA and intracytoplasmic staining; format: cell-based; details: for IFN-β secretion from naïve T cells / IL-17A secretion from naïve CD4+ T cells: ELISA; for IL-17A secretion from naïve CD4+ T cells: serum-free medium
Text: (§2) Error bars represent the standard deviation among three independent experiments using T cells from three unrelated subjects.
(§3) PBMCs were obtained from the peripheral blood of healthy subjects or from cord blood (AllCells) in compliance with institutional IRB protocols. CD4+ T cells were subsequently isolated by negative selection using magnetic beads (Miltenyi Biotech Inc., Auburn, Calif.). Naïve (CD25^− CD62L^+ CD45RA^hi) and central memory (CD25^− CD62L^+ CD45RA^−) CD4^+ T cells were obtained by staining with the following antibodies: CD62L-FITC, CD4-PerCP, CD45RA-PE-Cy7, CD25-APC-Cy7 (BD Pharmingen, San Diego, Calif.) and were sorted on a FACS Aria (BD Biosciences, Palo Alto, Calif.).
(§4) Naïve or central memory CD4^+ T cells were stimulated with plate-bound anti-CD3 and soluble CD28 monoclonal antibodies (1 μg/ml, each) in serum-free X-VIVO15 medium (Biowhittaker Inc., Walkersville, Md.) and cytokines (IL-6, 25 ng/ml; TGF-β, 5 ng/ml; IL-1β, 12.5 ng/ml; IL-21, 25 ng/ml; IL-23, 25 ng/ml) for a period of seven days, at which point supernatants were collected and tested by ELISA for IFN-β (BD Biosciences) or IL-17A (eBioscience, San Diego, Calif.) using paired antibodies. Intracytoplasmic staining was performed using standard methodologies and anti-IL-17-APC (R&D Systems, Minneapolis, Minn.) and anti-IFN-β-PE (BD Biosciences) antibodies.

[5] = tested on: human central memory CD4+ T cells; test: Differentiation assay: central memory CD4+ T cells (TCM) stimulated with anti-CD3/anti-CD28 plus cytokines for seven days; ELISA; format: cell-based
Text: as §2, §3, §4

[6] = tested on: naïve human CD4+ T cells; test: Quantitative RT-PCR of stimulated naïve CD4+ T cells from peripheral blood; format: cell-based; details: for IL-23 receptor up-regulation: stimulated naïve CD4+ T cells; for IL-22 mRNA: absence of exogenous IL-23
Method: The mean fold-induction (relative to T cells stimulated in the absence of exogenous cytokines) and standard error among three independent experiments using T cells from three unrelated subjects are represented.
as §4
All primers and probes were obtained from Applied Biosystems (Foster City, Calif.), and used according to standard methodologies.

[7] = tested on: naïve cord blood T cells; test: Quantitative RT-PCR of stimulated naïve CD4+ T cells from cord blood; format: cell-based, human; details: seven days
Method: Sorted T cells were stimulated for seven days in the presence of the indicated cytokines, at which point RNA was collected and levels of IL-17A and RORC2 were measured by quantitative RT-PCR. Mean expression and standard error are reported based on three independent experiments using cord blood from three distinct donors.
as §3
as §4, with “Intracytoplasmic staining was performed using standard methodologies and anti-IL-17-APC (R&D Systems, Minneapolis, Minn.) and anti-IFN-β-PE (BD Biosciences) antibodies.” left out

Molecule: CCCCC/C=C\C[C@@H](O)/C=C/C=C/C=C\[C@@H](O)CCCC(=O)O [LTB4, Leukotriene B4]
- Migration (chemotaxis) of TH17 cells ([1]; 10^−8M of LTB4 in the lower wells, 2 hr): induced the selective migration
- Migration (chemotaxis) of TH1 cells [2]: not

Molecule: CCCCC/C=C\C[C@@H](O)/C=C/c1cccc(C[C@@H](O)CCCCO)n1 [U-75302, 6-(6-(3R-hydroxy-1E,5Z-undecadien-1-yl)-2-pyridinyl)-1,5S-hexandiol]
- Block of LTB4-induced migration of Th17 cells ([1]; different doses of antagonist in the upper wells): blocked in a dose dependant manner
- Binding to BLT1 [3]: specifically binds BLT1

Molecule: IL-1β: cytokine, 12.5 ng/ml
- IFN-β secretion from naïve T cells [4]: induced significant amounts of IFN-β secretion
- IL-17A secretion from naïve CD4+ T cells [4]: failed, however, to induce IL-17A secretion
- IL-17A secretion from TCM [5]: induced the greatest amount of IL-17A secretion
- IL-21 mRNA ([6]; naïve CD4+ T cells): induced even greater amounts of IL-21 mRNA
- IL-23 receptor up-regulation [6]: induced IL-23 receptor up-regulation

Molecule: IL-6: cytokine, 25 ng/ml
- IFN-β secretion from naïve T cells [4]: induced significant amounts of IFN-β secretion
- IL-17A secretion from TCM [5]: little effect
- Inhibition of the FoxP3 induction by TGF-β ([6]; cytokine added with TGF-β): inhibited
- IL-23 receptor up-regulation [6]: induced IL-23 receptor up-regulation

Molecule: IL-21: cytokine, 25 ng/ml
- TH17 differentiation from naïve CD4+ T cells [4]: does not induce human TH17 differentiation
- IFN-β secretion from naïve T cells [4]: induced significant amounts of IFN-β secretion
- IL-17A secretion from naïve CD4+ T cells [4]: unable to synergize with endogenous levels of TGF-β to promote IL-17 secretion
- IL-21 mRNA ([6]; naïve CD4+ T cells): significantly up-regulated IL-21
- IL-22 mRNA ([6]; naïve CD4+ T cells): induced IL-22 mRNA levels
- IL-23 receptor up-regulation [6]: induced IL-23 receptor up-regulation
- RORC2 mRNA [7]: modestly induced RORC2

Molecule: TGF-β: cytokine, 5 ng/ml; doses from 1 ng/ml to 100 ng/ml examined
- TH17 differentiation from naïve CD4+ T cells [4]: all differentiation/proliferation was suppressed
- IL-21 mRNA ([6]; naïve CD4+ T cells): suppressed the expression of IL-21 and IL-22 mRNA induced by IL-21
- IL-22 mRNA ([6]; naïve CD4+ T cells): suppressed the expression of IL-21 and IL-22 mRNA induced by IL-21
- FoxP3 expression ([6]; naïve CD4+ T cells, seven days): induced
- T-bet mRNA expression ([6]; naïve CD4+ T cells, seven days): suppresses the induction of T-bet by IL-21
- IL-23 receptor up-regulation [6]: not

B1: IL-23: cytokine, 25 ng/ml (protein, UniProt Q9NPF7 20-189; P29460 23-328, looked up)
Interleukin-23 subunit alpha: RAVPGGSSPAWTQCQQLSQKLCTLAWSAHPLVGHMDLREEGDEETTNDVPHIQCGDGCDPQGLRDNSQFCLQRIHQGLIFYEKLLGSDIFTGEPSLLPDSPVGQLHASLLGLSQLLQPEGHHWETQQIPSLSPSQPWQRLLLRFKILRSLQAFVAVAARVFAHGAATLSP
Interleukin-12 subunit beta: IWELKKDVYVVELDWYPDAPGEMVVLTCDTPEEDGITWTLDQSSEVLGSGKTLTIQVKEFGDAGQYTCHKGGEVLSHSLLLLHKKEDGIWSTDILKDQKEPKNKTFLRCEAKNYSGRFTCWWLTTISTDLTFSVKSSRGSSDPQGVTCGAATLSAERVRGDNKEYEYSVECQEDSACPAAEESLPIEVMVDAVHKLKYENYTSSFFIRDIIKPDPPKNLQLKPLKNSRQVEVSWEYPDTWSTPHSYFSLTFCVQVQGKSKREKKDRVFTDKTSATVICRKNASISVRAQDRYYSSSWSEWASVPCS
- IL-17A secretion from TCM [5]: modestly enhance IL-17A secretion
